Test results from article PMC6359144 (International Journal of Molecular Sciences, 2019).

Assays:
[1] = system: Ea.Hy926 endothelial hybrid cells; test: MTT assay, Ea.Hy926 endothelial hybrid cells; assay type: cell-based; settings: Homo sapiens, EA.hy 926, read-out: IC50 Ea.Hy926 (72 h)
Description: HT-29 (ACC-299), HCT-116 (ACC-581) and DLD-1 (ACC-278) colon carcinoma, MCF-7 (ACC-115) breast carcinoma, KB-V1 (ACC-149), 518A2 (Department of Radiotherapy and Radiobiology, University Hospital Vienna) melanoma and Ea.Hy926 (ATCC no. CRL-2922) HUVEC derived endothelial hybrid cells line were grown in Dulbecco’s Modified Eagle Medium (DMEM; Biochrom), high glucose supplemented with 10% (v/v) fetal bovine serum (FBS; Biochrom.) and 1% (v/v) Antibiotic-Antimycotic solution (anti-anti; Thermo Scientific). HDFa human dermal fibroblasts (ATCC: PCS-201-012™) were grown in DMEM supplemented with 10% FBS, 1% anti-anti and 2 mM glutamine. The cells were incubated at 37 °C, 5% CO2, 95% humidified atmosphere. By repeated addition of topotecan or vinblastine at the maximum tolerated dose to the cell medium of MCF-7 and KB-V1 cells, the cells were rendered multidrug-resistant, indicated as MCF-7^Topo and KB-V1^Vbl, respectively. They were serially passaged following trypsinization by using 0.05% trypsin/0.02% EDTA (Biochrom). Mycoplasma contamination was routinely monitored, and only mycoplasma–free cultures were used.
MTT [3-(4,5-dimethylthiazol-2-yl)-2,5-diphenyltetrazolium bromide] (ABCR) was used to determine the cytotoxicity of test compounds as previously described. Briefly, HDFa human dermal fibroblasts and Ea.Hy926 endothelial hybrid cells (both 1 × 10^5 cells/mL, 100 µL/well), 518A2 melanoma, KB-V1^Vbl cervix carcinoma, MCF-7^Topo breast carcinoma, HT-29, DLD-1 and HCT-116 colon carcinoma (all 5 × 10^4 cells/mL, 100 µL/well) were grown in 96-well culture plates for 24 h. Then, various concentrations of the test compounds were added and the cells were incubated for 24-72 h at 37 °C. After adding 12.5 µL of a 0.5% MTT solution in PBS (final concentration 0.05%) to cell medium, microplates were incubated for 2 h and subsequently swiftly turned to discard the medium. The precipitate of formazan crystals was then dissolved in a 10% solution of SDS in DMSO containing 0.6% acetic acid. To ensure complete dissolution of formazan, microplates were incubated for at least 4 h at 37 °C. Finally, the absorbance at λ = 570 nm (formazan) and 630 nm (background) was measured using a microplate reader (Tecan F200). All experiments were carried out in quadruplicate and the percentage of viable cells was calculated as the mean ± SD with controls set to 100%. Selected graphs of MTT assays can be found in the Supporting Information (Figure S8).

recombinant human HDAC6 = biological target: T1, recombinant human HDAC6 (Homo sapiens, UniProt Q9UBN7); test: HDAC6 inhibitor screening assay (fluorometric); assay type: biochemical; settings: recombinant human HDAC6, mean ± SD of two experiments; read-out: HDAC inhibition IC50, HDAC6
T1 construct: purchased Biovision
T1 sequence (Q9UBN7 1-1215): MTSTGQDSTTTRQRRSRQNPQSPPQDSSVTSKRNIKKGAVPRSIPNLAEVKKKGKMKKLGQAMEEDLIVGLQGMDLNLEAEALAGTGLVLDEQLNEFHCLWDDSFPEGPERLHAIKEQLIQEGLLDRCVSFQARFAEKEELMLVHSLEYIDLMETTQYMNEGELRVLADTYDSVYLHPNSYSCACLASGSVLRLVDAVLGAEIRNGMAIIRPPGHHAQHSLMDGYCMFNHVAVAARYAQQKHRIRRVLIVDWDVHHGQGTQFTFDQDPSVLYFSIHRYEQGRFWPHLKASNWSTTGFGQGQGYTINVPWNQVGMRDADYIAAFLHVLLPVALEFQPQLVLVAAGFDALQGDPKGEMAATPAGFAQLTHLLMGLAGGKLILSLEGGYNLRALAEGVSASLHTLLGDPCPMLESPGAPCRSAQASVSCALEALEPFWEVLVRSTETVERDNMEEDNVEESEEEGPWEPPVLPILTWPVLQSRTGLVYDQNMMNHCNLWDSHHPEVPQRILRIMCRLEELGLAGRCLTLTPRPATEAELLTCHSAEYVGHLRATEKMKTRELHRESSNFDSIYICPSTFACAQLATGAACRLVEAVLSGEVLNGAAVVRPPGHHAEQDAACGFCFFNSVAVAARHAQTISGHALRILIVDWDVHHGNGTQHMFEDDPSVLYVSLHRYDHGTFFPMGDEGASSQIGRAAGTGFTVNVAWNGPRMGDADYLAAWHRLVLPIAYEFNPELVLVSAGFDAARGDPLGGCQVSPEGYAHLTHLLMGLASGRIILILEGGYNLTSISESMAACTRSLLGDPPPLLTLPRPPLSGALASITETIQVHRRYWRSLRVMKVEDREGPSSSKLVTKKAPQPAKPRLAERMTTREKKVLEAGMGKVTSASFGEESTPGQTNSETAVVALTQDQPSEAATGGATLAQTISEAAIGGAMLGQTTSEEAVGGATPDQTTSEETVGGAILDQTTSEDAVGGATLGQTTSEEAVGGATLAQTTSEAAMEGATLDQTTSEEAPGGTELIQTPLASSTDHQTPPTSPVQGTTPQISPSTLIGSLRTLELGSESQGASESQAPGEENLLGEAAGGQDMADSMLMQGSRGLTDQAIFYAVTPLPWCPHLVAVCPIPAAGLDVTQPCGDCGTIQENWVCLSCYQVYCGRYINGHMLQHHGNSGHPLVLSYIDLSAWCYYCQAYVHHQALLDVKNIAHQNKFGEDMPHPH
Description: The HDAC inhibitory potential of the novel compounds was determined by utilizing the deacetylase activity of recombinant human HDAC1 (HDAC1 Inhibitor Screening Assay Kit; Cayman Chemicals) or HDAC6 (HDAC6 Inhibitor Screening Kit (Fluorometric); Biovision) towards the corresponding synthetic acetylated-peptide substrates resulting in the release of a fluorescent product. The assays were performed according to manufacturer’s description of the in commercially available assay kits. […] The IC50 values were derived from dose-response curves and are expressed as the means ± SD of two independent experiments.

[2] = system: microtubule cytoskeleton in 518A2 melanoma cells; test: Immunofluorescence staining of microtubule cytoskeleton, 518A2 cells; assay type: cell-based, human; settings: 24 h
Description: 518A2 melanoma cells (5 × 10^4 cells/mL, 500 µL/well) or Ea.Hy926 endothelial hybrid cells (7.5 × 10^4 cells/mL, 500 µL/well) were seeded in 24-well plates on small glass coverslips and grown for 24 h. Then, the cells were exposed to the test compounds for 24 h. After washing the cells once with PBS, they were fixed in 3.7% formaldehyde in PBS (20 min, rt), and permeabilized and blocked in 1% BSA and 0.1% triton X-100 in PBS (30 min, rt). Then, the cells were incubated with monoclonal mouse anti-alpha-tubulin antibody (1 h, 37 °C). […] Then, the cells were washed for three times with PBS and once with water. The glass coverslips were mounted in 4-88 based mounting medium supplemented with 1 µg/mL DAPI for counterstaining the nuclei and 2.5% DABCO. Alterations of the microtubule were documented by a Zeiss Imager A1 AX10 fluorescence microscope (400× magnification).

Row | Structure (SMILES) | IC50 [1] [µM] | IC50 (recombinant human HDAC6) [µM] | effect on microtubule cytoskeleton ([2]; 0.5 µM) | effect on microtubule cytoskeleton ([2]; […]) | effect on microtubule cytoskeleton ([2]; 4 µM)
1 | COc1ccc(-c2ocnc2-c2cc(Br)c(OC)c(OC)c2)cc1OCCCC(=O)NO [4d, N-Hydroxy-4-[1-methoxy-4-(4’-(3’’-bromo-4’’,5’’-dimethoxyphenyl)oxazol-5’-yl)-2-phenoxy]butanamide] | 0.018 ± 0.004 | 13.8 ± 0.2 | complete disruption of the microtubule cytoskeleton | – | –
2 | COc1ccc(-c2ocnc2-c2cc(Br)c(OC)c(OC)c2)cc1OCCCCC(=O)NO [4e, N-Hydroxy-5-[1-methoxy-4-(4’-(3’’-bromo-4’’,5’’-dimethoxyphenyl)oxazol-5’-yl)-2-phenoxy]pentanamide] | 0.66 ± 0.01 | 3.5 ± 0.1 | – | eroded the highly organized microtubule network, but left some intact clusters | –
3 | COc1ccc(-c2ocnc2-c2cc(Br)c(OC)c(OC)c2)cc1OCCCCCC(=O)NO [4f, N-Hydroxy-6-[1-methoxy-4-(4’-(3’’-bromo-4’’,5’’-dimethoxyphenyl)oxazol-5’-yl)-2-phenoxy]hexanamide] | 0.41 ± 0.04 | 0.32 ± 0.02 | – | – | did not affect the microtubule cytoskeleton
